This passage reports EC50 results from patent US20250228835A1, “PYRIDINYLOXYPYRIDINES AND RELATED COMPOUNDS AND THEIR USE IN TREATING MEDICAL CONDITIONS” (Rectify Pharmaceuticals, Inc., priority 2024, published 2025).

Assay type in all cases: cell-based
The target of test [1] is T1, ABCB4 WT (Homo sapiens, UniProt P21439).
T1 construct: expressed in transfected cells
The experiment in a line: ABCB4 WT assay: HiBit protein expression. Conditions: HEK-293 cells stably expressing HiBit-tagged ABCB4 WT; 24 h treatment; top concentration 30 μM; read-out: ABCB4 WT EC50, Emax. An outline of the steps:
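HEK-293 cells stably expressing HiBit-tagged human ABCB4 WT, treated 24 h at 37 °C with 11-dose 3-fold dilutions, top final 30 μM in 0.3% DMSO. HiBit lytic reagent luminescence read after 1 h at 25 °C; Emax and EC50 derived.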

Test [2] deals with T2, ABCD2 WT (Homo sapiens, UniProt Q9UBJ2).
T2 construct: expressed in transfected cells
T2 sequence (Q9UBJ2 1-740): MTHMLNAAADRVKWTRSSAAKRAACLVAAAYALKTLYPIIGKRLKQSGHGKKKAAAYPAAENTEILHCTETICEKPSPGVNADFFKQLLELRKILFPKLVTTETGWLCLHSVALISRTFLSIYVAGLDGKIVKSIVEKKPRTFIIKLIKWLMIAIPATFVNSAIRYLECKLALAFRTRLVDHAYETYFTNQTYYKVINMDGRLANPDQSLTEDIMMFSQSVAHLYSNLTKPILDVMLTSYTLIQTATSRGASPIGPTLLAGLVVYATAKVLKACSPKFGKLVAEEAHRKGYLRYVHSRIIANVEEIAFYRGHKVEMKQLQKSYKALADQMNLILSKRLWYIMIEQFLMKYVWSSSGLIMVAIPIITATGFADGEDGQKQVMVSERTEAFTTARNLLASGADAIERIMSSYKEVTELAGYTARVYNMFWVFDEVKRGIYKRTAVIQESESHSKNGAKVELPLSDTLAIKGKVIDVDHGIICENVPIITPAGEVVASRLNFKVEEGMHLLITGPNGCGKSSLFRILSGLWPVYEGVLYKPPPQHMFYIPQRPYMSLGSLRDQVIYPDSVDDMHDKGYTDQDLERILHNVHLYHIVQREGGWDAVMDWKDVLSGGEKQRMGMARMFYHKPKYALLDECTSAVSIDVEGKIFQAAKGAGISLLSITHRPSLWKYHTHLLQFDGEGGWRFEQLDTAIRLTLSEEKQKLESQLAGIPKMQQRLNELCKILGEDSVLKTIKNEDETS
Briefly: D2 correction dose-response assay: ABCD2 WT HiBit protein expression. Conditions: HEK-293/ABCD2 WT cells, 24 hours treatment, HiBit luminescence; class combines EC50 and Mean MaxAct (fold); read-out: ABCD2 WT EC50, Emax. A digest of the protocol: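 HEK-293 cells stably expressing HiBit-tagged human ABCD2 WT were treated with 11 doses (3-fold dilutions, top final 30 μM, 0.3% DMSO) for 24 h at 37 °C. Expression was measured by HiBit lytic luminescence after 1 h at 25 °C, giving EC50 and Emax.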

Test [3] concerns the target T3, ABCA4 P1380L (Homo sapiens, UniProt P78363, P1380L).
T3 construct: expressed in transfected cells
Briefly: A4 correction dose-response assay: ABCA4 P1380L HiBit protein expression. The settings on record: HEK-293 cells stably expressing HiBit-tagged ABCA4 P1380L; 24 h treatment; top concentration 30 μM; read-out: ABCA4 P1380L EC50, Emax. An outline of the steps:
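Cells transfected with HiBit-tagged human ABCA4 P1380L cDNA were treated for 24 h at 37°C with an eleven-point dilution series (top final 30 μM, 0.3% DMSO).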

T3 sequence (P78363 whole entry P1380L): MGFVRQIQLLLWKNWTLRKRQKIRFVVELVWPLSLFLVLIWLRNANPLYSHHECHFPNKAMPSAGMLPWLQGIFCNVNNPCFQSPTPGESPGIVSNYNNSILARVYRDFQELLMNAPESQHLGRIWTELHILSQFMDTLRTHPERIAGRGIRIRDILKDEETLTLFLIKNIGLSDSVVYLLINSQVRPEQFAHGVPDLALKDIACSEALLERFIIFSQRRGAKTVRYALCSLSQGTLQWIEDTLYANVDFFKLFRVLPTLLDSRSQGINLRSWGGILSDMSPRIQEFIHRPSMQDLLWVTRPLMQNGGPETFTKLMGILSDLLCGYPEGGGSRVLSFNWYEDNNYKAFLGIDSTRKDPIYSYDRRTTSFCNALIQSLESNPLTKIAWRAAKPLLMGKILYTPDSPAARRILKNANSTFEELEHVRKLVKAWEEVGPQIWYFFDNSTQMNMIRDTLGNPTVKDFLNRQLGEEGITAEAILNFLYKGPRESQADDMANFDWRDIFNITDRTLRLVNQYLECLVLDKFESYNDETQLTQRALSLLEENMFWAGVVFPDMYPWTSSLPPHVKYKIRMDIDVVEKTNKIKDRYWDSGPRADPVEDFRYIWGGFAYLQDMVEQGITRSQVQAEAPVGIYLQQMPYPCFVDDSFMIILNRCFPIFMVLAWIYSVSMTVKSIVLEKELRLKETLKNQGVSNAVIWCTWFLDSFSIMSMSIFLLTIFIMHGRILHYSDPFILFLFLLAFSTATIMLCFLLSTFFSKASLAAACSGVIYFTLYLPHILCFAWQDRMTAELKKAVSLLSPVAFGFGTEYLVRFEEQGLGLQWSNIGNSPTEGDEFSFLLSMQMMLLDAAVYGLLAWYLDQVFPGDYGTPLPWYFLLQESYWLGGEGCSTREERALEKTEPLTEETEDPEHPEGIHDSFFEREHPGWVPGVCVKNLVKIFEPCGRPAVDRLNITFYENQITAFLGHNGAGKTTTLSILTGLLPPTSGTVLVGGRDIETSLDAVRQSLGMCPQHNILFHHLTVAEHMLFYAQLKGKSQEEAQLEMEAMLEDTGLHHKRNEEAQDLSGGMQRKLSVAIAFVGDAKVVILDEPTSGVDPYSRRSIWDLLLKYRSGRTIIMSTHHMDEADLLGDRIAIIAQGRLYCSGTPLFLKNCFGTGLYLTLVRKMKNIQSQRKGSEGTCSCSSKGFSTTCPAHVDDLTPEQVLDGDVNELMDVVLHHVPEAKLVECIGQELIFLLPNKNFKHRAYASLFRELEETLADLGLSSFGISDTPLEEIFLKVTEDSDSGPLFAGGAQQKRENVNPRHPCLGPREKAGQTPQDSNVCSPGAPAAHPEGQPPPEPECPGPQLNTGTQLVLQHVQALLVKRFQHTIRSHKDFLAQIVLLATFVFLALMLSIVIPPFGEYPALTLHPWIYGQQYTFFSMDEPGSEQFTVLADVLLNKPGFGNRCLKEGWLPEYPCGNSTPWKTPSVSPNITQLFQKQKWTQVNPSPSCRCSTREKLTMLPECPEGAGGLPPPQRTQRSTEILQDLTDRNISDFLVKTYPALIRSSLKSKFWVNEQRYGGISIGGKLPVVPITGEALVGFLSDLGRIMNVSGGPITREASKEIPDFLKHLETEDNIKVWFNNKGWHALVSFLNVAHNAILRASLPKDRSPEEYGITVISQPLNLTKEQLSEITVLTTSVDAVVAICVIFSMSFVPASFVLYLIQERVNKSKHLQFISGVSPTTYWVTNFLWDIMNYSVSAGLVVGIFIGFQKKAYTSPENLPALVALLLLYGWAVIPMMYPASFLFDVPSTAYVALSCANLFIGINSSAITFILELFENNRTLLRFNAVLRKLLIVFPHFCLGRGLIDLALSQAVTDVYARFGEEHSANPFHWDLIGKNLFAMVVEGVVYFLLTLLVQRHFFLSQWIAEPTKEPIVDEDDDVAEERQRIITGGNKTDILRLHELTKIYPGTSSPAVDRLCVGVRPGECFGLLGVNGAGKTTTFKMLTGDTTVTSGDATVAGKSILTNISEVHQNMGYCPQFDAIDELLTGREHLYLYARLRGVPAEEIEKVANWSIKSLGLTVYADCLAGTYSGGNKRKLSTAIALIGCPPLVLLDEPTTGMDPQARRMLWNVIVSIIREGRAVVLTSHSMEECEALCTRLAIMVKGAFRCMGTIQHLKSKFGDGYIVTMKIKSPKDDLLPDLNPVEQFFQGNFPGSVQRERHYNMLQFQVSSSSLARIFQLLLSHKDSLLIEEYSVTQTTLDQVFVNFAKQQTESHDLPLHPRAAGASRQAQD
T1 sequence (P21439 whole entry): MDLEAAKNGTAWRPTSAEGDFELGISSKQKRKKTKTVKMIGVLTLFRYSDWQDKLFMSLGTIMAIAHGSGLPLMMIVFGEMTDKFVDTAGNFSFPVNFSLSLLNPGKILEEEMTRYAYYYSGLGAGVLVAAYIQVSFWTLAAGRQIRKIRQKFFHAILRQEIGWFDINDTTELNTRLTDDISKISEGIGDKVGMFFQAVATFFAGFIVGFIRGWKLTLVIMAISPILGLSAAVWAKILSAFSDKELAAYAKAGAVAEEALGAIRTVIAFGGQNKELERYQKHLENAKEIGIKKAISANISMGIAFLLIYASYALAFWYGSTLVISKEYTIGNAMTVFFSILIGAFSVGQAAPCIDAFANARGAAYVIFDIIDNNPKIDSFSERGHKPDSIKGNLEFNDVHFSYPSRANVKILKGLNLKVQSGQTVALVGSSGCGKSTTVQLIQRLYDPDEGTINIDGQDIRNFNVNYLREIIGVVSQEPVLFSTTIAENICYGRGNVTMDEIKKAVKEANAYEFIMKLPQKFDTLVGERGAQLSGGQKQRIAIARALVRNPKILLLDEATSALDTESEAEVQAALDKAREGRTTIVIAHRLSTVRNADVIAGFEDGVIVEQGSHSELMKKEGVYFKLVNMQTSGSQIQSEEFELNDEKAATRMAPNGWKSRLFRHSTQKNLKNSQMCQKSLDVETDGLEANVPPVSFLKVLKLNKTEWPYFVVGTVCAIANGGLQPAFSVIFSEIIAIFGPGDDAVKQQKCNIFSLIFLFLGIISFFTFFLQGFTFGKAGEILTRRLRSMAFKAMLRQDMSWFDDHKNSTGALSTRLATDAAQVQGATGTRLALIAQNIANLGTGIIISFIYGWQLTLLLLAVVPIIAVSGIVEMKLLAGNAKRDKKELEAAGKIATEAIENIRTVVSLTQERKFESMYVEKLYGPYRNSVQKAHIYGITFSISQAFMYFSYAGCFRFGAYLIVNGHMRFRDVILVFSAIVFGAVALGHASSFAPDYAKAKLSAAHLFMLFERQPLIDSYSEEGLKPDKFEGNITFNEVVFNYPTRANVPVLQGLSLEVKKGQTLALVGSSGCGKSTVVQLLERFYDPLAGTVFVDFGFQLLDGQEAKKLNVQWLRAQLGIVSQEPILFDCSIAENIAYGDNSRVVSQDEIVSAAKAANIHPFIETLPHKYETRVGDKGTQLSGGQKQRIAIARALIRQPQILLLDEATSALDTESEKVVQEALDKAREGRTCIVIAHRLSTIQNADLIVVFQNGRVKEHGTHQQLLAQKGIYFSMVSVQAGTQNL

For `Cc1cc(C)c(Oc2nc(N3CCN(C(=O)C4CC4)CC3)ccc2S(N)(=O)=O)c(C)c1` [Compound I-285], the figures for the EC50 in test [1], in test [2] and in test [3] were ≥ 25 µM, 10 to 25 µM and > 25 µM, respectively.

Consider `Cc1cc(C2CC2)nc(C2CC2)c1Oc1nc(-c2cncc(C#N)c2)ccc1S(=N)(=O)C1CC1` (stereo not drawn) [Compound I-317], for which the half-maximal effective concentration (EC50) was < 1 µM in test [1], 1 to 10 µM in test [2] and > 25 µM in test [3].

In the case of `Cc1cc(C(F)F)cc(C2CC2)c1Oc1nc(-c2cncc(C#N)c2)ccc1S(=N)(=O)C1CC1` (stereo not drawn) [Compound I-319], the EC50 was 1 to 10 µM in test [1], 1 to 10 µM in test [2] and > 25 µM in test [3].

For `Cc1cc(C(F)F)nc(C2CC2)c1Oc1nc(-c2cncc(C#N)c2)ccc1S(=O)(=O)NC1CCOCC1` [Compound I-320], the results for the EC50 in test [1], in test [2] and in test [3] were < 25 µM, > 25 µM and < 25 µM, respectively.

Turning to `Cc1cc(C(F)F)nc(C2CC2)c1Oc1nc(-c2cncc(C#N)c2)ccc1S(=O)(=O)NC1COC1` [Compound I-321], the EC50 in test [1] is 1 to 10 µM; in test [2], 1 to 10 µM; in test [3], < 25 µM.

For `Cc1cc(C2CC2)nc(C2CC2)c1Oc1nc(-c2cncc(C#N)c2)ccc1S(=O)(=O)NC1CCOCC1` [Compound I-322], the EC50 was < 25 µM in test [1], > 25 µM in test [2] and 1 to 10 µM in test [3].

For the compound `Cc1cc(C)c(Oc2[nH]c(-c3cncc(C#N)c3)cc(=O)c2NS(C)(=O)=O)c(C)n1` [Compound I-325], the EC50 in test [1] was < 25 µM; in test [2] it was 10 to 25 µM; in test [3], 1 to 10 µM.

Turning to `Cc1cc(C)c(Oc2nc(-c3cc(C#N)c[nH]c3=O)ccc2NS(C)(=O)=O)c(C)n1` [Compound I-326], the EC50 in test [1] was < 25 µM; in test [2] it was > 25 µM; in test [3] it was < 1 µM.

Consider `Cc1cc(C)c(Oc2nc(-c3cncc(C#N)c3)c(O)cc2NS(C)(=O)=O)c(C)n1` [Compound I-327], for which the EC50 in test [1], in test [2] and in test [3] was < 1 µM each time.
